This note sets out measurements from PMC5855688, “BC-Box Motif-Mediated Neuronal Differentiation of Somatic Stem Cells” (International Journal of Molecular Sciences, 2018).

What all share (format): cell-based, rat (neonate Wistar)
Experiment [1] has as its system skin-derived precursors (SKPs). In words: Neurite outgrowth / morphological evaluation of neuronal differentiation. The following applies: for Morphological change: phase-contrast microscopy, Figure 1E. As to the method: (§1) Rodent skin-derived precursor cells (SKPs), which can differentiate to neurons, were used. SKPs were previously isolated from the back dermis of neonate Wistar rats by the authors. These cells were cultured in growth medium composed of DMEM/F12 (1:1; Gibco, Grand Island, NY, USA) containing 2% B27 supplement (Gibco), 20 ng/mL epidermal growth factor (EGF; Upstate Biotechnology, Lake Placid, NY, USA), and 40 ng/mL bFGF (PeproTech EC Ltd., Rocky Hill, NJ, USA) in a humidified incubator at 37 °C with 5% CO2. The floating clusters of cultured cells were centrifuged and dissociated into a single-cell suspension by use of a Pasteur pipette with a flame-polished tip. These single cells were then re-suspended into at a concentration of 50,000 cells/mL for passage or experiments.
(§2) For neuronal differentiation, cells were dissociated into a single-cell suspension by use of a Pasteur pipette and re-suspended into a concentration of 50,000 cells/mL in DMEM/F12 without serum, neurotrophic factors or growth factors. Then, the cells were cultured on poly-L-lysine-coated dishes or cover glasses, and the synthesized peptides at concentrations from 1 to 5 μM were added to the culture medium and delivered into the cells. Three days or more later, the cells were used for morphological, immunocytochemical, immunohistochemical, electrophysiological and immunoprecipitation studies, as well as for Western blot analysis.
Neurite outgrowth with length exceeding the diameter of the neuronal soma is often assessed as a morphological index of neuronal differentiation. After a single-cell suspension was made by pipetting, the cells were cultured in DMEN/F12 medium alone at 37 °C in a 5% CO2 incubator. Thereafter, neurite outgrowth was evaluated with the following 4 levels: +++, for above 50% of the cells showing neurite outgrowth; ++, for 20–50% with neurite outgrowth; +, for 5–19% having neurite outgrowth; and −, for below 5% of the cells with neurite outgrowth.

The test system of experiment [2] is skin-derived precursors (SKPs). Description: Immunocytochemistry with anti-Neurofilament-H (NFH) antibody. To be noted: ten divided pVHL sequences compared, Figure 1C; peptides at 1 to 5 μM. The procedure: as §1, §2
Cultured cells were fixed with 4% paraformaldehyde in PBS (Phosphate buffered saline) for 10 min at room temperature. Cells were incubated for 1 h at room temperature with primary antibodies. Antibodies against anti-MAP2 antibody (Sigma-Aldrich, St. Louis, MO, USA), anti-Neurofilment-H (NFH) antibody (Sigma-Aldrich), anti-NeuN antibody (Merk Millipore, Billerica, MA, USA), anti-GFAP antibody (DAKO, Santa Clara, CA, USA), anti-tyrosine hydroxylase (TH) antibody (Merk Millipore, Billerica, MA, USA), anti-choline acetyl transferase (ChAT) antibody (Abbiotec, San Diego, CA, USA), anti-glutamic acid decaboxylase (GAD) antibody (Enzo Life Sciences, Flamingdale, NY, USA), and anti-rhodopsin antibody (Santa Cruz, San Diego, CA, USA) were used. […] Nuclear counterstaining was done with DAPI (Molecular Probes, Eugene, OR, USA) or TO-PRO-3 (Molecular Probes), and observations were made with a fluorescence microscope system (FV300, Olympus, Tokyo, Japan). We counted the number of immuno-positive cells with a given antibody in 4 to 6 random non-overlapping visual fields (50–200 cells per field) in each experiment. […] The degree of positivity was expressed as the rate of immuno-positive cells to the total number of nuclei stained with DAP1 or TO-PRO-3.

Experiment [3] has as its system skin-derived precursors (SKPs). Description: Western blot analysis of NFH protein. The following applies: ten divided pVHL sequences compared, Figure 1B, peptides at 1 to 5 μM. The procedure: as §1, §2
(§3) Cultured cells were washed 3 times in cold PBS and then scraped into ice-cold PBS. After incubation on ice for 10 min, the cells were lysed with lysis buffer and centrifuged, after which the supernatants were collected. Each sample was separated by SDS-PAGE under reducing conditions and transferred electrophoretically to nitrocellulose filters. Non-specific binding of antibody was blocked by incubation with 5% donkey serum for 1 h. Western blots were probed with anti-MAP2 antibody, anti-NFH antibody, anti-ChAT antibody, anti-GAD antibody, anti-rhodopsin antibody, anti-TH antibody, and anti-elongin C antibody (Santa Cruz, San Diego, CA, USA) followed by horseradish peroxidase-conjugated secondary antibodies. Protein bands were detected by using a chemical luminescence detection system (ECL Plus Western Blotting Reagent Pack, Amersham, Hemel Hempstead, UK). Images were analyzed with LAS-1000 (Fujifilm, Tokyo, Japan), and the density of the bands was determined by using Image Gauge software (Fujifilm).
(Immunoblotting shows a protein as a band on a membrane.)

Experiment [4] deals with skin-derived precursors (SKPs). Description: Western blot analysis of neuronal markers in NDD peptide-treated cells. The following applies: Figure 6A; for Expression of TH: tyrosine hydroxylase; for Expression of ChAT: choline acetyltransferase; for Expression of GAD: glutamic acid decarboxylase. As to the method: as §1, §2, §3
The test system of experiment [5] is skin-derived precursors (SKPs). Description: Immunocytochemistry of neuronal markers in NDD peptide-treated cells. To be noted: Figure 6B. The procedure: as §1, §2
Cultured cells were fixed with 4% paraformaldehyde in PBS (Phosphate buffered saline) for 10 min at room temperature. Cells were incubated for 1 h at room temperature with primary antibodies. Antibodies against anti-MAP2 antibody (Sigma-Aldrich, St. Louis, MO, USA), anti-Neurofilment-H (NFH) antibody (Sigma-Aldrich), anti-NeuN antibody (Merk Millipore, Billerica, MA, USA), anti-GFAP antibody (DAKO, Santa Clara, CA, USA), anti-tyrosine hydroxylase (TH) antibody (Merk Millipore, Billerica, MA, USA), anti-choline acetyl transferase (ChAT) antibody (Abbiotec, San Diego, CA, USA), anti-glutamic acid decaboxylase (GAD) antibody (Enzo Life Sciences, Flamingdale, NY, USA), and anti-rhodopsin antibody (Santa Cruz, San Diego, CA, USA) were used. After incubation with primary antibody, the cells were incubated for 1 h with secondary antibody, either rhodamine-conjugated anti-mouse IgG (Sigma-Aldrich) or FITC-conjugated anti-rabbit IgG (Sigma-Aldrich). Nuclear counterstaining was done with DAPI (Molecular Probes, Eugene, OR, USA) or TO-PRO-3 (Molecular Probes), and observations were made with a fluorescence microscope system (FV300, Olympus, Tokyo, Japan). We counted the number of immuno-positive cells with a given antibody in 4 to 6 random non-overlapping visual fields (50–200 cells per field) in each experiment. At least 2 experiments were performed per condition. The degree of positivity was expressed as the rate of immuno-positive cells to the total number of nuclei stained with DAP1 or TO-PRO-3.

[6] abbreviates: BC-box motif alone (10-residue) peptides, delivered with TAT PTD, 1 to 5 μM.
Setting [7] is: BC-box motif plus five C-terminal amino acids peptides, delivered with TAT PTD, 1 to 5 μM.

For “YARAAARQARA SLQYICRAVI [SOCS5 BC-box motif alone]”, the “Neurite Outgrowth Activity” value in experiment [1] (setting [6]) is recorded as “+ (5–19% having neurite outgrowth)”.
Take “YARAAARQARAVYTLKERCLQVVRSLVK [VHL(155–171), pVHL fragment conjugated with PTD]”: in experiment [1] (peptides at 1 to 5 μM), the Morphological change result was “assumed a neuron-like morphology”. Moreover, the “Rate of cells having neurites” value in experiment [1] (ten divided pVHL sequences compared, Figure 1D, peptides at 1 to 5 μM, three days or more) was “greatest rate”. Moreover, in experiment [2], the “Rate of immunoreactivity for Neurofilament-H (NFH)” value is “greatest rate of immunoreactivity”. For the same sequence, the NFH protein expression entry in experiment [3] was “greatest expression”.
Turning to “YARAAARQARASLQYLCRFVIRQYTR [SOCS6 BC-box motif plus five amino acids]”, in experiment [1] (setting [7]), the “Neurite Outgrowth Activity” value is “++ (20–50% with neurite outgrowth)”. For the same sequence, the “Expression of TH” value in experiment [4] is recorded as “moderate”. The “Rate of TH-positive (dopaminergic neuron-like) cells” value (“Rate of TH-positive” below) in experiment [5] is recorded as “high rates of positive cells”.
Regarding “YARAAARQARASLKHLCRKALRSFLT [WSB2 BC-box motif plus five amino acids]”, the “Neurite Outgrowth Activity” value in experiment [1] (setting [7]) is “++ (20–50% with neurite outgrowth)”. Besides, in experiment [4], the “Expression of ChAT” value is reported as “moderate”, the “Expression of GAD” value was “expressed highly” and the “Expression of TH” value is listed as “moderate”. Besides, in experiment [5], the “Rate of GAD-positive (GABAnergic neuron-like) cells” value (“Rate of GAD-positive” for short) is reported as “high rates of positive cells” and the “Rate of TH-positive” value is recorded as “high rates of positive cells”.
On to “YARAAARQARASLQHLCRFRI [SOCS7 BC-box motif alone]”, for which the “Neurite Outgrowth Activity” value in experiment [1] (setting [6]) is “+ (5–19% having neurite outgrowth)”.
Regarding “YARAAARQARATLLESSARTI [LRR-1 BC-box motif alone]”, the “Neurite Outgrowth Activity” value in experiment [1] (setting [6]) is recorded as “- (below 5% of the cells with neurite outgrowth)”.
With “YARAAARQARATLQHFCRLAI [SOCS2 BC-box motif alone]”, the “Neurite Outgrowth Activity” value in experiment [1] (setting [6]) is given as “- (below 5% of the cells with neurite outgrowth)”.
As for “YARAAARQARASLQHLCRFRIRQLVR [SOCS7 BC-box motif plus five amino acids]”, the “Neurite Outgrowth Activity” value in experiment [1] (setting [7]) is recorded as “+++ (above 50% of the cells showing neurite outgrowth)”. Besides, in experiment [4], the “Expression of ChAT” value is listed as “high” and the “Expression of TH” value is “pronounced”. The “Rate of ChAT-positive (cholinergic neuron-like) cells” value in experiment [5] is “high rates of positive cells”.
For the sequence “YARAAARQARASLTHLCRLEIRSSIK [ASB3 BC-box motif plus five amino acids]”, in experiment [5], the “Rate of GAD-positive” value is “high rates of positive cells” and the “Rate of TH-positive” value is “high rates of positive cells”.
Consider “YARAAARQARATLLESSARTILHNRI [LRR-1 BC-box motif plus five amino acids]”, for which, in experiment [1] (setting [7]), the “Neurite Outgrowth Activity” value is given as “++ (20–50% with neurite outgrowth)”. Further, the “Expression of GAD” value in experiment [4] is recorded as “expressed highly”. For the same sequence, in experiment [5], the “Rate of GAD-positive” value is given as “high rates of positive cells” and the “Rate of TH-positive” value was “high rates of positive cells”.
With “YARAAARQARAPLQELCRQRIVAAVG [SOCS1 BC-box motif plus five amino acids]”, the “Neurite Outgrowth Activity” value in experiment [1] (setting [7]) is listed as “++ (20–50% with neurite outgrowth)”. In experiment [4], the “Expression of ChAT” value is given as “moderate” and the “Expression of TH” value was “moderate”.
“YARAAARQARA TLKERCLQVV [VHL(157–166), pVHL BC-box motif alone, conjugated with PTD]”: the “Neurite Outgrowth Activity” value in experiment [1] (setting [6]) is on record as “- (below 5% of the cells with neurite outgrowth)”; in experiment [1] (Figure 2A, rates of cells having neurites, peptides at 1 to 5 μM, VHL157–168 vs VHL(157–171) p < 0.005), “scarcely did”.
For “YARAAARQARATLQHLCRKTV [SOCS3 BC-box motif alone]”, in experiment [1] (setting [6]), the “Neurite Outgrowth Activity” value is “- (below 5% of the cells with neurite outgrowth)”.
Turning to “YARAAARQARA SLKHLCRKAL [WSB2 BC-box motif alone]”, the “Neurite Outgrowth Activity” value in experiment [1] (setting [6]) is “- (below 5% of the cells with neurite outgrowth)”.
As for “YARAAARQARASLQHICRTVICNCTT [SOCS4 BC-box motif plus five amino acids]”, in experiment [1] (setting [7]), the “Neurite Outgrowth Activity” value is recorded as “++ (20–50% with neurite outgrowth)”. Further, in experiment [4], the Expression of rhodopsin result is “moderate” and the “Expression of GAD” value is recorded as “expressed highly”.
The like results for “YARAAARQARATLQHFCRLAINKCT G [SOCS2 BC-box motif plus five amino acids]” were, in that order, “+ (5–19% having neurite outgrowth)”, “moderate” and “expressed highly”.
Consider “YARAAARQARAMPRRAENWDEAEV [VHL(1–13), pVHL fragment conjugated with PTD]”, for which, in experiment [1] (peptides at 1 to 5 μM), the Morphological change result is “no morphological change”.
On to “YARAAARQARASLQHICRTVI [SOCS4 BC-box motif alone]”, for which the “Neurite Outgrowth Activity” value in experiment [1] (setting [6]) is “- (below 5% of the cells with neurite outgrowth)”.
With “YARAAARQARASLQYICRAVICRCTT [SOCS5 BC-box motif plus five amino acids]”, in experiment [1] (setting [7]), the “Neurite Outgrowth Activity” value was “+++ (above 50% of the cells showing neurite outgrowth)”. Further, the Expression of rhodopsin entry in experiment [4] is reported as “highly expressed”. Further, in experiment [5], the “Rate of TH-positive” value is “high rates of positive cells” and the “Rate of rhodopsin-positive cells” value is on record as “high rates of positive cells”.
Take “YARAAARQARATLQHLCRKTVNGHLD [SOCS3 BC-box motif plus five amino acids]”: the “Neurite Outgrowth Activity” value in experiment [1] (setting [7]) is “++ (20–50% with neurite outgrowth)”. Besides, the “Expression of TH” value in experiment [4] is “moderate”. For the same sequence, in experiment [5], the “Rate of GAD-positive” value was “high rates of positive cells”.
“YARAAARQARA PLQELCRQRI [SOCS1 BC-box motif alone]”: in experiment [1] (setting [6]), the “Neurite Outgrowth Activity” value is given as “- (below 5% of the cells with neurite outgrowth)”.
On the same count and under the same terms, in the case of “YARAAARQARASLQYLCRFVI [SOCS6 BC-box motif alone]” it was “- (below 5% of the cells with neurite outgrowth)”.
